Source: PMC5618414, “FVIIa-sTF and Thrombin Inhibitory Activities of Compounds Isolated from Microcystis aeruginosa K-139” (Marine Drugs, 2017)
Several values for one entry are separate records, joined by “and”; a condition that tells them apart may be missing. Equal values may be shown once. Read-outs that look alike come from different tables or passages of the source.

Assays:
[1] = biological target: fVIIa-sTF (Homo sapiens, UniProt P08709); experiment: fVIIa-sTF inhibitory assay; format: biochemical; settings: for EC50: 95% confidence using GraphPad Prism 7; for Thrombin/FVIIa-sTF EC50 Ratio: thrombin EC50 divided by fVIIa-sTF EC50
Sequence of fVIIa-sTF (P08709 61-212 limits assumed): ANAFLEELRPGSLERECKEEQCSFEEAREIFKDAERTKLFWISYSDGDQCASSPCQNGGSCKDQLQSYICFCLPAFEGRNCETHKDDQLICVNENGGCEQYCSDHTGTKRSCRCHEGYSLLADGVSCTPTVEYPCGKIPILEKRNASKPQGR
Sequence of fVIIa-sTF (P08709 213-466 limits assumed): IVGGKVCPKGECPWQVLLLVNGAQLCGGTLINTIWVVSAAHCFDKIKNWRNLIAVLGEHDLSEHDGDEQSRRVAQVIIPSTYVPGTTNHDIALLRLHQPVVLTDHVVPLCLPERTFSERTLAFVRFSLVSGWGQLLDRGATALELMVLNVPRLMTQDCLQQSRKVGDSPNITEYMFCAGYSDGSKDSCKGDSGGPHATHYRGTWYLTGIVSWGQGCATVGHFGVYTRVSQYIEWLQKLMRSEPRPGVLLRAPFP
Sequence of fVIIa-sTF (P13726 33-251 partner limits assumed): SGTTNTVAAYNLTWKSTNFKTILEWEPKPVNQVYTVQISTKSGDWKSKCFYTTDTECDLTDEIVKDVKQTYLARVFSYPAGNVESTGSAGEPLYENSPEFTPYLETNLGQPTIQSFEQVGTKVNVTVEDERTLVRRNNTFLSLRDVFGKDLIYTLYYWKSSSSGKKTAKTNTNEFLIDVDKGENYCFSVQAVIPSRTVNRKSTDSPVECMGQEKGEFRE
Experimental: The compounds isolated from M. aeruginosa K139 were subjected to fVIIa-sTF and thrombin assays at 10 μg/mL and 100 μg/mL. […] Our microviridin B was isolated from the strain of M. aeruginosa K139. […] We used ethanol or water as negative controls.
The fVIIa-sTF and thrombin assays have been previously described in previous papers. […] A 1 mg/mL EtOH solution was prepared and independently diluted to make 750, 500, 250, 100, 75, 50, 25, 10, 5.0, 2.5, and 1.0 μg/mL. The same experimental procedure was done in all fVIIa-sTF and thrombin assays as previously described. A 20-μL solution was added in each well, in replicate, to make a final concentration of 100, 75, 50, 250, 100, 75, 50, 25, 10, 5.0, 2.5, and 1.0 μg/mL.

[2] = test system: chymotrypsin; set-up: method as in PMID 19260658; settings: literature; cited from earlier work
[3] = biological target: T1, thrombin (Homo sapiens, UniProt P00734); experiment: thrombin inhibitory assay; format: biochemical; settings: for thrombin inhibition (in words): at 10 μg/mL and 100 μg/mL (low and high doses)
T1 construct: subjected to fVIIa-sTF and thrombin assays
Experimental: The compounds isolated from M. aeruginosa K139 were subjected to fVIIa-sTF and thrombin assays at 10 μg/mL and 100 μg/mL. […] The micropeptin K139 gave a favorable fVIIa-sTF activity at 10 μg/mL and 100 μg/mL with inhibitory activity greater than 50% and 85%, respectively. […] The EC50 of each compound was computed by GraphPad Prism 7 [34], with 95% confidence. […] A difference in activity for the same compound may be attributed to the different cyanobacterial strains used in the study. Our microviridin B was isolated from the strain of M. aeruginosa K139. Okino’s group isolated the compound from the NIES-102 cyanobacterial strain. […]. […] We used ethanol or water as negative controls.
The fVIIa-sTF and thrombin assays have been previously described in previous papers. The half maximal effective concentration (EC50) compounds isolated from M. aeruginosa K139 was done in three plates, with two replicates in each of plate. A 1 mg/mL EtOH solution was prepared and independently diluted to make 750, 500, 250, 100, 75, 50, 25, 10, 5.0, 2.5, and 1.0 μg/mL. The same experimental procedure was done in all fVIIa-sTF and thrombin assays as previously described. A 20-μL solution was added in each well, in replicate, to make a final concentration of 100, 75, 50, 250, 100, 75, 50, 25, 10, 5.0, 2.5, and 1.0 μg/mL. The EC50 was calculated from GraphPad Prism 7^© [34], with 95% confidence.

[4] = biological target: T1, thrombin; settings: literature, cited from earlier work
[5] = 95% confidence using GraphPad Prism 7, read-out: Thrombin: EC50

In the case of `CC[C@H](C)[C@@H]1NC(=O)[C@H](Cc2ccc(O)cc2)N(C)C(=O)[C@H](CC(C)C)N2C(=O)[C@H](CC[C@H]2O)NC(=O)[C@H](Cc2ccc(O)cc2)NC(=O)[C@@H](NC(=O)[C@H](CCC(N)=O)NC(=O)[C@H](O)Cc2ccc(O)cc2)[C@@H](C)OC1=O` [917S-A], the “fVIIa-sTF inhibitory activity (in words)” value ([1]; at 100 μg/mL) is reported as “negative inhibitory activity”.

In the case of `CCCCCC(=O)N[C@@H](CCC(=O)O)C(=O)N[C@@H]1C(=O)N[C@@H](Cc2ccc(O)cc2)C(=O)N[C@H]2CC[C@@H](O)N(C2=O)[C@@H](CC(C)C)C(=O)N(C)[C@@H](Cc2ccc(O)cc2)C(=O)N[C@@H](C(C)C)C(=O)O[C@@H]1C` [micropeptin E], the “chymotrypsin EC50” value [2] is listed as 1.0 µg/mL.

For `CCCCCCCC(=O)N[C@@H](CCC(=O)O)C(=O)N[C@@H]1C(=O)N[C@@H](Cc2ccc(O)cc2)C(=O)N[C@H]2CC[C@@H](O)N(C2=O)[C@@H](CC(C)C)C(=O)N(C)[C@@H](Cc2ccc(O)cc2)C(=O)N[C@@H](C(C)C)C(=O)O[C@@H]1C` [micropeptin F], the “chymotrypsin EC50” value [2] is listed as 1.5 µg/mL.

For `CC(=O)N[C@@H](CC(C)C)C(=O)N[C@@H](CC(C)C)C(=O)N[C@H](C=O)CCCNC(=N)N` [Leupeptin], the EC50 [3, 5] was 18.3 µM, the EC50 [1] was 14 µM and the “Thrombin/FVIIa-sTF EC50 Ratio” value [1] was 1.31.

With `CCCCCC(=O)N[C@@H](CC(=O)O)C(=O)N[C@@H]1C(=O)N[C@@H](CCCNC(=N)N)C(=O)N[C@H]2CC[C@@H](O)N(C2=O)[C@@H]([C@@H](C)CC)C(=O)N(C)[C@@H](Cc2ccc(O)cc2)C(=O)N[C@@H]([C@@H](C)CC)C(=O)O[C@@H]1C` [Micropeptin K139] the EC50 [3, 5] was 26.9 µM, the “thrombin inhibition (in words)” value [3] was “inhibited thrombin” and the EC50 [1] was 10.6 µM. The inhibition at 10 µg/mL ([1]; at 10 μg/mL) was over 50%, the inhibition at 100 µg/mL ([1]; at 100 μg/mL) was over 85% and the “Thrombin/FVIIa-sTF EC50 Ratio” value [1] was 2.54. For the same compound, the “Thrombin/FVIIa-sTF EC50 Ratio” value ([1]; listed as micropeptin K139) was “greater than one”.

In the case of `CCCCCC(=O)N[C@@H](CCC(=O)O)C(=O)N[C@@H]1C(=O)N[C@@H](Cc2ccc(O)cc2)C(=O)N[C@H]2CC[C@@H](O)N(C2=O)[C@@H](Cc2ccccc2)C(=O)N(C)[C@@H](Cc2ccc(O)cc2)C(=O)N[C@@H](C(C)C)C(=O)O[C@@H]1C` [micropeptin C], the “chymotrypsin EC50” value [2] is given as 1.1 µg/mL.

In the case of `CCCCCCCC(=O)N[C@@H](CCC(=O)O)C(=O)N[C@@H]1C(=O)N[C@@H](CCCCN)C(=O)N[C@H]2CC[C@@H](O)N(C2=O)[C@@H](CC(C)C)C(=O)N(C)[C@@H](Cc2ccc(O)cc2)C(=O)N[C@@H](C(C)C)C(=O)O[C@@H]1C` [micropeptin A], the “thrombin inhibitory assay (in words)” value [4] is given as “inactive” and the “thrombin inhibitory assay (in words)” value ([4]; listed as Micropeptin A) is given as “does not inhibit thrombin”.

In the case of `CCCCCCCC(=O)N[C@@H](CCC(=O)O)C(=O)N[C@@H]1C(=O)N[C@@H](Cc2ccc(O)cc2)C(=O)N[C@H]2CC[C@@H](O)N(C2=O)[C@@H](Cc2ccccc2)C(=O)N(C)[C@@H](Cc2ccc(O)cc2)C(=O)N[C@@H](C(C)C)C(=O)O[C@@H]1C` [micropeptin D], the “chymotrypsin EC50” value [2] is listed as 1.2 µg/mL.

In the case of `CC(C)CC(NC(=O)C(O)Cc1ccc(O)cc1)C(=O)N1C(C(=O)NC2CCCN(C(=N)N)C2O)CC2CCC(O)CC21` [Aeruginosin K139, L-Hpla-L-Leu-L-Choi-L-Argal], the EC50 [3, 5] is reported as 0.66 µM, the “thrombin inhibition (in words)” value [3] is reported as “inhibited thrombin” and the EC50 [1] is reported as 166 µM and ~166 µM. For the same compound, the “fVIIa-sTF inhibitory activity (in words)” value ([1]; at 100 μg/mL) was “active” and the “Thrombin/FVIIa-sTF EC50 Ratio” value [1] was 0.004.

Work on `N=C(N)c1ccc(CS(=O)(=O)F)cc1` [APMSF, 4-amidinophenylmethanesulfonylfluoride] yielded an EC50 [3] of 2.1 µM.

With `CC[C@H](C)[C@@H]1NC(=O)[C@H](Cc2ccc(O)cc2)N(C)C(=O)[C@H](CC(C)C)N2C(=O)[C@H](CC[C@H]2O)NC(=O)[C@H](CC(C)C)NC(=O)[C@@H](NC(=O)[C@H](CCC(N)=O)NC(=O)[C@H](O)Cc2ccc(O)cc2)[C@@H](C)OC1=O` [917S-C] the “fVIIa-sTF inhibitory activity (in words)” value ([1]; at 100 μg/mL) was “negative inhibitory activity”.

With `CCC(C)C1NC(=O)C(Cc2ccc(O)cc2)N(C)C(=O)C(CC(C)C)N2C(=O)C(CCC2O)NC(=O)C(CC2C=CC(O)CC2)NC(=O)C(NC(=O)C(CCC(N)=O)NC(=O)C(O)Cc2ccc(O)cc2)C(C)OC1=O` (stereo not drawn) [917S-B] the “fVIIa-sTF inhibitory activity (in words)” value ([1]; at 100 μg/mL) was “negative inhibitory activity”.
